Data set [1] is described as follows: Absorbance and fluorescence emission spectra (SpectraMax M2). The data set is classed as physicochemical. To be noted: MK library, Table 5. The method in brief: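 Spectroscopic data, including quantum yields, were recorded with a SpectraMax M2 instrument and analysed in GraphPrism.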
Data set [2] can be described thus: Quantum yield measurements versus Acridine Yellow in EtOH. The data set is classed as physicochemical. To be noted: MK library, Table 5; excitation 460 nm. The method in brief: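 Emission areas integrated over 510–700 nm were compared with Acridine Yellow in ethanol (Φ=0.47), all excited at 460 nm. The comparative equation was normalized to excitation-wavelength absorbance and solvent refractive index.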

As for `CCCC(C)c1cn(-c2ccc3n2[B-](F)(F)[N+]2=C(NCc4ccccc4OCC)C=CC2=C3c2ccc(N)cc2)nn1` (stereo not drawn) [MK103-3], in data set [1], the “λmax Absorp.” value came out at 474 nm and the “λmax Emission” value is reported as 564 nm. In addition, the “φ (quantum yield)” value in data set [2] is listed as 1.71%.

Turning to `CCOc1ccccc1CNC1=[N+]2C(=C(c3ccc(N)cc3)c3ccc(-n4cc(C5CC5)nn4)n3[B-]2(F)F)C=C1` [MK103-4], in data set [1], the “λmax Absorp.” value amounted to 473 nm and the “λmax Emission” value is 563 nm. Moreover, in data set [2], the “φ (quantum yield)” value came to 1.68%.

As to `CCOc1ccccc1CNC1=[N+]2C(=C(c3ccc(N)cc3)c3ccc(-n4cc(C5CCCC5)nn4)n3[B-]2(F)F)C=C1` [MK103-5], in data set [1], the “λmax Absorp.” value is listed as 473 nm and the “λmax Emission” value is on record as 564 nm. Besides, the “φ (quantum yield)” value in data set [2] stood at 2.01%.

Take `CCOc1ccccc1CNC1=[N+]2C(=C(c3ccc(N)cc3)c3ccc(-n4cc(CC5CCCCC5)nn4)n3[B-]2(F)F)C=C1` [MK103-8]: in data set [1], the “λmax Absorp.” value is recorded as 473 nm and the “λmax Emission” value amounted to 563 nm. Further, the “φ (quantum yield)” value in data set [2] is recorded as 1.64%.

Take `CCOc1ccccc1CNC1=[N+]2C(=C(c3ccc(N)cc3)c3ccc(-n4cc(CN(C)Cc5ccccc5)nn4)n3[B-]2(F)F)C=C1` [MK103-18]: in data set [1], the “λmax Absorp.” value is reported as 473 nm and the “λmax Emission” value is on record as 565 nm. For the same compound, in data set [2], the “φ (quantum yield)” value was 1.19%.

As for `CCOc1ccccc1CNC1=[N+]2C(=C(c3ccc(N)cc3)c3ccc(-n4cc(CCc5ccccc5)nn4)n3[B-]2(F)F)C=C1` [MK103-19], in data set [1], the “λmax Absorp.” value is listed as 472 nm and the “λmax Emission” value is given as 568 nm. The “φ (quantum yield)” value in data set [2] is reported as 1.96%.

As to `CCOc1ccccc1CNC1=[N+]2C(=C(c3ccc(N)cc3)c3ccc(-n4cc(CC(C)C)nn4)n3[B-]2(F)F)C=C1` [MK103-43], in data set [1], the “λmax Absorp.” value stood at 474 nm and the “λmax Emission” value is recorded as 563 nm. In data set [2], the “φ (quantum yield)” value is given as 1.30%.

As to `CCCc1cn(-c2ccc3n2[B-](F)(F)[N+]2=C(NCc4ccccc4OCC)C=CC2=C3c2ccc(N)cc2)nn1` [MK103-48], in data set [1], the “λmax Absorp.” value came to 473 nm and the “λmax Emission” value came to 563 nm. Moreover, the “φ (quantum yield)” value in data set [2] is listed as 1.91%.

For `CCCCCC(O)c1cn(-c2ccc3n2[B-](F)(F)[N+]2=C(NCc4ccccc4OCC)C=CC2=C3c2ccc(N)cc2)nn1` (stereo not drawn) [MK103-69], in data set [1], the “λmax Absorp.” value came to 474 nm and the “λmax Emission” value was 563 nm. Also, the “φ (quantum yield)” value in data set [2] amounted to 2.28%.

In the case of `CCOc1ccccc1CNC1=[N+]2C(=C(c3ccc(N)cc3)c3ccc(-n4cc(CO)nn4)n3[B-]2(F)F)C=C1` [MK103-70], in data set [1], the “λmax Absorp.” value turned out to be 472 nm and the “λmax Emission” value is listed as 562 nm. Further, the “φ (quantum yield)” value in data set [2] is given as 1.93%.

Turning to `CCCC(C)c1cn(-c2ccc3n2[B-](F)(F)[N+]2=C(NCc4cc(OC)ccc4OC)C=CC2=C3c2ccc(N)cc2)nn1` (stereo not drawn) [MK181-3], in data set [1], the “λmax Absorp.” value is reported as 473 nm and the “λmax Emission” value was 565 nm. Further, the “φ (quantum yield)” value in data set [2] amounted to 0.36%.

`COc1ccc(OC)c(CNC2=[N+]3C(=C(c4ccc(N)cc4)c4ccc(-n5cc(C6CC6)nn5)n4[B-]3(F)F)C=C2)c1` [MK181-4]: in data set [1], the “λmax Absorp.” value is on record as 474 nm and the “λmax Emission” value worked out at 566 nm. Besides, in data set [2], the “φ (quantum yield)” value is recorded as 0.28%.

As to `COc1ccc(OC)c(CNC2=[N+]3C(=C(c4ccc(N)cc4)c4ccc(-n5cc(C6CCCC6)nn5)n4[B-]3(F)F)C=C2)c1` [MK181-5], in data set [1], the “λmax Absorp.” value worked out at 475 nm and the “λmax Emission” value stood at 563 nm. Further, the “φ (quantum yield)” value in data set [2] is listed as 0.43%.

As to `COc1ccc(OC)c(CNC2=[N+]3C(=C(c4ccc(N)cc4)c4ccc(-n5cc(CC6CCCCC6)nn5)n4[B-]3(F)F)C=C2)c1` [MK181-8], in data set [1], the “λmax Absorp.” value was 474 nm and the “λmax Emission” value is listed as 565 nm. Further, in data set [2], the “φ (quantum yield)” value amounted to 0.33%.

As to `COc1ccc(OC)c(CNC2=[N+]3C(=C(c4ccc(N)cc4)c4ccc(-n5cc(CN(C)Cc6ccccc6)nn5)n4[B-]3(F)F)C=C2)c1` [MK181-18], in data set [1], the “λmax Absorp.” value turned out to be 473 nm and the “λmax Emission” value amounted to 563 nm. Also, the “φ (quantum yield)” value in data set [2] came to 0.52%.

For the compound `COc1ccc(OC)c(CNC2=[N+]3C(=C(c4ccc(N)cc4)c4ccc(-n5cc(CCc6ccccc6)nn5)n4[B-]3(F)F)C=C2)c1` [MK181-19], in data set [1], the “λmax Absorp.” value amounted to 474 nm and the “λmax Emission” value came to 564 nm. In addition, the “φ (quantum yield)” value in data set [2] is 0.85%.

Consider `COc1ccc(OC)c(CNC2=[N+]3C(=C(c4ccc(N)cc4)c4ccc(-n5cc(CC(C)C)nn5)n4[B-]3(F)F)C=C2)c1` [MK181-43], for which, in data set [1], the “λmax Absorp.” value stood at 475 nm and the “λmax Emission” value was found to be 566 nm. Further, in data set [2], the “φ (quantum yield)” value was 0.37%.

For the compound `CCCc1cn(-c2ccc3n2[B-](F)(F)[N+]2=C(NCc4cc(OC)ccc4OC)C=CC2=C3c2ccc(N)cc2)nn1` [MK181-48], in data set [1], the “λmax Absorp.” value was 473 nm and the “λmax Emission” value is recorded as 563 nm. The “φ (quantum yield)” value in data set [2] is 0.50%.

Take `CCCCCC(O)c1cn(-c2ccc3n2[B-](F)(F)[N+]2=C(NCc4cc(OC)ccc4OC)C=CC2=C3c2ccc(N)cc2)nn1` (stereo not drawn) [MK181-69]: in data set [1], the “λmax Absorp.” value is listed as 473 nm and the “λmax Emission” value is 563 nm. In addition, the “φ (quantum yield)” value in data set [2] is reported as 0.86%.

With `COc1ccc(OC)c(CNC2=[N+]3C(=C(c4ccc(N)cc4)c4ccc(-n5cc(CO)nn5)n4[B-]3(F)F)C=C2)c1` [MK181-70], in data set [1], the “λmax Absorp.” value is 472 nm and the “λmax Emission” value is reported as 568 nm. Also, the “φ (quantum yield)” value in data set [2] turned out to be 0.88%.

As for `CCCC(C)c1cn(-c2ccc3n2[B-](F)(F)[N+]2=C(N(C)Cc4ccccc4)C=CC2=C3c2ccc(N)cc2)nn1` (stereo not drawn) [MK195-3], in data set [1], the “λmax Absorp.” value is listed as 476 nm and the “λmax Emission” value amounted to 564 nm. In addition, the “φ (quantum yield)” value in data set [2] amounted to 0.46%.

Regarding `CN(Cc1ccccc1)C1=[N+]2C(=C(c3ccc(N)cc3)c3ccc(-n4cc(C5CC5)nn4)n3[B-]2(F)F)C=C1` [MK195-4], in data set [1], the “λmax Absorp.” value is listed as 476 nm and the “λmax Emission” value was found to be 566 nm. For the same compound, in data set [2], the “φ (quantum yield)” value came out at 0.34%.

On to `CN(Cc1ccccc1)C1=[N+]2C(=C(c3ccc(N)cc3)c3ccc(-n4cc(C5CCCC5)nn4)n3[B-]2(F)F)C=C1` [MK195-5], for which, in data set [1], the “λmax Absorp.” value is reported as 477 nm and the “λmax Emission” value stood at 579 nm. In data set [2], the “φ (quantum yield)” value stood at 0.39%.

With `CN(Cc1ccccc1)C1=[N+]2C(=C(c3ccc(N)cc3)c3ccc(-n4cc(CC5CCCCC5)nn4)n3[B-]2(F)F)C=C1` [MK195-8], in data set [1], the “λmax Absorp.” value is given as 476 nm and the “λmax Emission” value was 579 nm. Moreover, the “φ (quantum yield)” value in data set [2] turned out to be 0.36%.

Take `CN(Cc1ccccc1)Cc1cn(-c2ccc3n2[B-](F)(F)[N+]2=C(N(C)Cc4ccccc4)C=CC2=C3c2ccc(N)cc2)nn1` [MK195-18]: in data set [1], the “λmax Absorp.” value was found to be 475 nm and the “λmax Emission” value is 580 nm. The “φ (quantum yield)” value in data set [2] is listed as 0.52%.

As for `CN(Cc1ccccc1)C1=[N+]2C(=C(c3ccc(N)cc3)c3ccc(-n4cc(CCc5ccccc5)nn4)n3[B-]2(F)F)C=C1` [MK195-19], in data set [1], the “λmax Absorp.” value turned out to be 477 nm and the “λmax Emission” value came to 582 nm. The “φ (quantum yield)” value in data set [2] was found to be 0.27%.

Turning to `CC(C)Cc1cn(-c2ccc3n2[B-](F)(F)[N+]2=C(N(C)Cc4ccccc4)C=CC2=C3c2ccc(N)cc2)nn1` [MK195-43], in data set [1], the “λmax Absorp.” value came out at 475 nm and the “λmax Emission” value is reported as 571 nm. In addition, the “φ (quantum yield)” value in data set [2] is reported as 0.41%.

For the compound `CCCc1cn(-c2ccc3n2[B-](F)(F)[N+]2=C(N(C)Cc4ccccc4)C=CC2=C3c2ccc(N)cc2)nn1` [MK195-48], in data set [1], the “λmax Absorp.” value stood at 476 nm and the “λmax Emission” value is listed as 584 nm. In addition, in data set [2], the “φ (quantum yield)” value is listed as 0.32%.

Consider `CCCCCC(O)c1cn(-c2ccc3n2[B-](F)(F)[N+]2=C(N(C)Cc4ccccc4)C=CC2=C3c2ccc(N)cc2)nn1` (stereo not drawn) [MK195-69], for which, in data set [1], the “λmax Absorp.” value came out at 476 nm and the “λmax Emission” value is given as 591 nm. In data set [2], the “φ (quantum yield)” value is reported as 0.28%.

On to `CN(Cc1ccccc1)C1=[N+]2C(=C(c3ccc(N)cc3)c3ccc(-n4cc(CO)nn4)n3[B-]2(F)F)C=C1` [MK195-70], for which, in data set [1], the “λmax Absorp.” value was determined as 475 nm and the “λmax Emission” value is given as 592 nm. For the same compound, in data set [2], the “φ (quantum yield)” value worked out at 0.27%.

As to `CCCC(C)c1cn(-c2ccc3n2[B-](F)(F)[N+]2=C(N4CCCC4)C=CC2=C3c2ccc(N)cc2)nn1` (stereo not drawn) [MK215-3], in data set [1], the “λmax Absorp.” value was 471 nm and the “λmax Emission” value came out at 567 nm. In addition, the “φ (quantum yield)” value in data set [2] is 0.26%.

For `Nc1ccc(C2=C3C=CC(N4CCCC4)=[N+]3[B-](F)(F)n3c2ccc3-n2cc(C3CC3)nn2)cc1` [MK215-4], in data set [1], the “λmax Absorp.” value amounted to 470 nm and the “λmax Emission” value came out at 576 nm. The “φ (quantum yield)” value in data set [2] is reported as 0.29%.

In the case of `Nc1ccc(C2=C3C=CC(N4CCCC4)=[N+]3[B-](F)(F)n3c2ccc3-n2cc(C3CCCC3)nn2)cc1` [MK215-5], in data set [1], the “λmax Absorp.” value turned out to be 471 nm and the “λmax Emission” value was 568 nm. For the same compound, the “φ (quantum yield)” value in data set [2] came to 0.53%.

As to `Nc1ccc(C2=C3C=CC(N4CCCC4)=[N+]3[B-](F)(F)n3c2ccc3-n2cc(CC3CCCCC3)nn2)cc1` [MK215-8], in data set [1], the “λmax Absorp.” value was determined as 470 nm and the “λmax Emission” value turned out to be 574 nm. In addition, the “φ (quantum yield)” value in data set [2] is reported as 0.56%.

Consider `CN(Cc1ccccc1)Cc1cn(-c2ccc3n2[B-](F)(F)[N+]2=C(N4CCCC4)C=CC2=C3c2ccc(N)cc2)nn1` [MK215-18], for which, in data set [1], the “λmax Absorp.” value is listed as 471 nm and the “λmax Emission” value worked out at 583 nm. Besides, in data set [2], the “φ (quantum yield)” value is recorded as 0.24%.

For `Nc1ccc(C2=C3C=CC(N4CCCC4)=[N+]3[B-](F)(F)n3c2ccc3-n2cc(CCc3ccccc3)nn2)cc1` [MK215-19], in data set [1], the “λmax Absorp.” value came to 471 nm and the “λmax Emission” value worked out at 578 nm. Further, in data set [2], the “φ (quantum yield)” value came to 0.22%.

The values above are taken from patent publication US9513294B2, “Megastokes amino-triazolyl-BODIPY compounds and applications to live neuron staining and human serum albumin FA1 drug site probing” (National University of Singapore, priority 2012, dated 2016).
